Source: ChEMBL document CHEMBL5154851, “Novel benzothiazole‒urea hybrids: Design, synthesis and biological activity as potent anti-bacterial agents against MRSA” (Eur J Med Chem, 2022)
In brackets after ≈: the same amount, converted by molar mass. Activity calls are given as the source filed them. The calls are words filed in the database; no cut-off is given here.

Columns and labels:
Escherichia coli = experiment: Antibacterial activity against Escherichia coli incubated for 18 to 20 hrs by double dilution method; format: functional; settings: time 18-20 hrs
Candida albicans = experiment: Antibacterial activity against Candida albicans ATCC10231 incubated for 18 to 20 hrs by double dilution method; format: functional; settings: time 18-20 hrs
HepG2 [1] = experiment: Cytotoxicity against human HepG2 cells assessed as cell survival rate at 25 uM incubated for 24 hrs by MTT assay relative to control; format: functional
Staphylococcus aureus [2] = experiment: Antibiofilm activity against methicillin-resistant Staphylococcus aureus ATCC2858 assessed as minimal biofilm eradication concentration incubated for 24 hrs by crystal violet staining based assay; format: functional
HepG2 [3] = experiment: Cytotoxicity against human HepG2 cells assessed as cell survival rate at 50 uM incubated for 24 hrs by MTT assay relative to control; format: functional
Staphylococcus aureus [4] = experiment: Antibacterial activity against methicillin-resistant Staphylococcus aureus ATCC2858 incubated for 18 to 20 hrs by double dilution method; format: functional; settings: time 18-20 hrs
Staphylococcus aureus [5] = experiment: Antibacterial activity against Staphylococcus aureus ATCC6538 incubated for 18 to 20 hrs by double dilution method; format: functional; settings: time 18-20 hrs
Pseudomonas aeruginosa = experiment: Antibacterial activity against Pseudomonas aeruginosa incubated for 18 to 20 hrs by double dilution method; format: functional; settings: time 18-20 hrs
Staphylococcus aureus [6] = experiment: Antibacterial activity against methicillin-resistant Staphylococcus aureus clinical isolate ATCC05107 incubated for 18 to 20 hrs by double dilution method; format: functional; settings: time 18-20 hrs
Staphylococcus aureus [7] = experiment: Antibacterial activity against methicillin-resistant Staphylococcus aureus clinical isolate ATCC0101 incubated for 18 to 20 hrs by double dilution method; format: functional; settings: time 18-20 hrs
Staphylococcus aureus [8] = experiment: Antibiofilm activity against methicillin-resistant Staphylococcus aureus ATCC2858 assessed as biofilm eradication at 0.049 to 100 uM incubated for 24 hrs by crystal violet staining based assay; format: functional, organism-based; settings: dose 0.049-100 µM
Staphylococcus aureus [9] = experiment: Antibacterial activity against methicillin-resistant Staphylococcus aureus clinical isolate ATCC10105 incubated for 18 to 20 hrs by double dilution method; format: functional; settings: time 18-20 hrs
Staphylococcus aureus [10] = experiment: Antibacterial activity against methicillin-resistant Staphylococcus aureus ATCC2858 assessed as reduction in bacterial growth at 0.5 to 4 times of MIC measured after 4 to 8 hrs by time kill assay; format: functional, organism-based; settings: time 4-8 hrs
Staphylococcus aureus [11] = experiment: Induction of drug resistance in methicillin-resistant Staphylococcus aureus ATCC2858 assessed as fold increase in MIC measured after 19 passage by broth dilution assay; format: functional; settings: time 19.0 day
Staphylococcus aureus [12] = experiment: Induction of drug resistance in methicillin-resistant Staphylococcus aureus ATCC2858 assessed as fold increase in MIC measured over 20 passage by broth dilution assay; format: functional; settings: time 20.0 day
[13] = Toxicity in overnight fasted ICR mouse assessed as change in appearance at 200 mg/kg, IG measured for 7 days; format: organism-based; settings: in vivo, po, 168 h, time 7 day
Staphylococcus aureus [14] = experiment: Antibacterial activity against methicillin-resistant Staphylococcus aureus ATCC2858 infected in C57BL/6J mouse assessed as log reduction in bacterial titres in blood at 2 mg/kg, ip measured after 24 hrs; format: functional
Staphylococcus aureus [15] = experiment: Antibiofilm activity against methicillin-resistant Staphylococcus aureus ATCC2858 assessed as biofilm eradication incubated for 24 hrs by crystal violet staining based assay; format: functional, organism-based; settings: dose 0.049-100 µM, DDE = dose-dependent effect
[16] = Hepatotoxicity in C57BL/6J mouse assessed as central necrosis at 200 mg/kg, po measured after 24 hrs by hematoxylin and eosin staining based immunohistochemical analysis; format: toxicity, organism-based; settings: in vivo
Staphylococcus aureus [17] = experiment: Antibacterial activity against methicillin-resistant Staphylococcus aureus ATCC2858 infected in C57BL/6J mouse assessed as log reduction in bacterial titres in blood at 5 mg/kg, ip measured after 24 hrs; format: functional
[18] = Toxicity in overnight fasted ICR mouse assessed as change in activity at 200 mg/kg, IG measured for 7 days; format: organism-based; settings: in vivo, po, 168 h, time 7 day
[19] = Toxicity in overnight fasted ICR mouse assessed as change in body weight at 200 mg/kg, IG measured for 7 days; format: organism-based; settings: in vivo, po, 168 h, time 7 day
[20] = Hepatotoxicity in C57BL/6J mouse assessed as steatosis in hepatic hilum at 200 mg/kg, po measured after 24 hrs by hematoxylin and eosin staining based immunohistochemical analysis; format: toxicity, organism-based; settings: in vivo
Cell membrane = experiment: Induction of cell membrane damage in methicillin-resistant Staphylococcus aureus ATCC2858 at 2 times of MIC measured after 4 to 12 hrs by DAPI and propidium iodide staining based confocal laser scanning microscopy analysis; settings: time 4-12 hrs

Structure (SMILES)	MIC (Escherichia coli) [µM]	MIC (Candida albicans) [µM]	MIC (Staphylococcus aureus [4]) [µM]	MIC (Staphylococcus aureus [5]) [µM]	MIC (Pseudomonas aeruginosa) [µM]	further results
O=C(Nc1ccc(C(F)(F)F)cc1)Nc1ccc(Sc2nc3ccccc3s2)c(Cl)c1	> 200	> 200	0.78 (≈ 0.374 µg/mL)	0.39 (≈ 0.187 µg/mL)	> 200	Activity (HepG2 [1]): >75%; MBEC (Staphylococcus aureus [2]): 5 µM; Activity (HepG2 [3]): 20%; MIC (Staphylococcus aureus [6]): 1.56 µM (≈ 0.749 µg/mL); MIC (Staphylococcus aureus [7]): 0.78 µM (≈ 0.374 µg/mL); Activity (Staphylococcus aureus [8]): Active; MIC (Staphylococcus aureus [9]): 1.56 µM (≈ 0.749 µg/mL)
O=C(Nc1ccc(Sc2nc3ccccc3s2)cc1)Nc1ccc(F)c(F)c1	> 200	> 200	0.78 (≈ 0.323 µg/mL)	0.39 (≈ 0.161 µg/mL)	> 200	MIC (Staphylococcus aureus [6]): 3.12 µM (≈ 1.29 µg/mL); MIC (Staphylococcus aureus [7]): 1.56 µM (≈ 0.645 µg/mL); MIC (Staphylococcus aureus [9]): 1.56 µM (≈ 0.645 µg/mL)
CC(=O)NC[C@H]1CN(c2ccc(N3CCOCC3)c(F)c2)C(=O)O1 [LINEZOLID]	> 50	–	6.25 (≈ 2.11 µg/mL)	3.12 (≈ 1.05 µg/mL)	> 50	–
O=C(NCc1ccccc1Cl)Nc1ccc(Sc2nc3ccccc3s2)c(Cl)c1	> 200	> 200	> 200	> 200	> 200	–
O=C(Nc1ccc(Sc2nc3ccccc3s2)cc1)Nc1ccc(C(F)(F)F)cc1	> 200	> 200	0.39 (≈ 0.174 µg/mL)	0.39 (≈ 0.174 µg/mL)	> 200	Activity (HepG2 [1]): >75%; MBEC (Staphylococcus aureus [2]): 5 µM; Activity (Staphylococcus aureus [10]): Active; MIC (Staphylococcus aureus [6]): 0.78 µM (≈ 0.347 µg/mL); MIC (Staphylococcus aureus [7]): 0.78 µM (≈ 0.347 µg/mL); Activity (Staphylococcus aureus [8]): Active; MIC (Staphylococcus aureus [9]): 0.39 µM (≈ 0.174 µg/mL)
O=C(Nc1ccc(Sc2nc3ccccc3s2)c(Cl)c1)N1CCSC1	> 200	> 200	> 200	> 200	> 200	–
O=C(Nc1ccc(Sc2nc3ccccc3s2)cc1)N1CCOCC1	> 200	> 200	200 (≈ 74.3 µg/mL)	200 (≈ 74.3 µg/mL)	> 200	–
CC1COc2c(N3CCN(C)CC3)c(F)cc3c(=O)c(C(=O)O)cn1c23 (stereo not drawn) [OFLOXACIN]	0.39 (≈ 0.141 µg/mL)	–	1.56 (≈ 0.564 µg/mL)	0.78 (≈ 0.282 µg/mL)	1.56 (≈ 0.564 µg/mL)	MBEC (Staphylococcus aureus [2]): 3 µM
O=C(Nc1ccc(Sc2nc3ccccc3s2)c(Cl)c1)N1CCOCC1	> 200	> 200	> 200	> 200	> 200	–
O=C(Nc1ccc(Sc2nc3ccccc3s2)c(Cl)c1)Nc1ccccc1C(F)(F)F	> 200	> 200	3.12 (≈ 1.5 µg/mL)	3.12 (≈ 1.5 µg/mL)	> 200	–
O=C(Nc1ccccc1C(F)(F)F)N1CCC(Sc2nc3ccccc3s2)CC1	> 200	> 200	3.12 (≈ 1.37 µg/mL)	3.12 (≈ 1.37 µg/mL)	> 200	–
CN[C@H](CC(C)C)C(=O)N[C@H]1C(=O)N[C@@H](CC(N)=O)C(=O)N[C@H]2C(=O)N[C@H]3C(=O)N[C@H](C(=O)N[C@H](C(=O)O)c4cc(O)cc(O)c4-c4cc3ccc4O)[C@H](O)c3ccc(c(Cl)c3)Oc3cc2cc(c3O[C@@H]2O[C@H](CO)[C@@H](O)[C@H](O)[C@H]2O[C@H]2C[C@](C)(N)[C@H](O)[C@H](C)O2)Oc2ccc(cc2Cl)[C@H]1O [VANCOMYCIN]	–	–	0.78 (≈ 1.13 µg/mL)	–	–	MBEC (Staphylococcus aureus [2]): 7 µM; MIC (Staphylococcus aureus [6]): 1.56 µM (≈ 2.26 µg/mL); MIC (Staphylococcus aureus [7]): 0.78 µM (≈ 1.13 µg/mL); MIC (Staphylococcus aureus [9]): 1.56 µM (≈ 2.26 µg/mL)
O=C(Nc1ccc(F)c(F)c1)Nc1ccc(Sc2nc3cc(Cl)ccc3s2)c(Cl)c1	> 200	> 200	0.78 (≈ 0.376 µg/mL)	0.39 (≈ 0.188 µg/mL)	> 200	fold change (FC) (Staphylococcus aureus [11]): 256; fold change (FC) (Staphylococcus aureus [12]): 64; Activity (HepG2 [1]): >75%; MBEC (Staphylococcus aureus [2]): 4 µM; Activity [13]: Non-Toxic; log(activity) (Staphylococcus aureus [14]): 1.9; Activity (HepG2 [3]): 50%; Activity (Staphylococcus aureus [15]): Dde; Activity [16]: Non-Toxic; Activity (Staphylococcus aureus [10]): Active; log(activity) (Staphylococcus aureus [17]): 2.4; Activity [18]: Non-Toxic; Activity [19]: Non-Toxic; Activity [20]: Non-Toxic; Activity (Cell membrane): Active; MIC (Staphylococcus aureus [6]): 1.56 µM (≈ 0.752 µg/mL); MIC (Staphylococcus aureus [7]): 1.56 µM (≈ 0.752 µg/mL); MIC (Staphylococcus aureus [9]): 0.78 µM (≈ 0.376 µg/mL)
CN1CCN(C(=O)Nc2ccc(Sc3nc4ccccc4s3)c(Cl)c2)CC1	200 (≈ 83.8 µg/mL)	200 (≈ 83.8 µg/mL)	100 (≈ 41.9 µg/mL)	100 (≈ 41.9 µg/mL)	200 (≈ 83.8 µg/mL)	–
O=C(Nc1ccc(Sc2nc3ccccc3s2)c(Cl)c1)N1CCCC1	> 200	> 200	> 200	> 200	> 200	–
O=C(Nc1ccc(Br)cc1)Nc1ccc(Sc2nc3ccccc3s2)c(Cl)c1	> 200	> 200	0.78 (≈ 0.383 µg/mL)	0.78 (≈ 0.383 µg/mL)	> 200	–
O=C(Nc1ccc(F)cc1)Nc1ccc(Sc2nc3ccccc3s2)c(Cl)c1	> 200	> 200	1.56 (≈ 0.671 µg/mL)	0.78 (≈ 0.335 µg/mL)	> 200	–
O=C(Nc1ccc(C(F)(F)F)cc1)Nc1ccc(Sc2nc3cc(Cl)ccc3s2)c(Cl)c1	> 200	> 200	0.78 (≈ 0.401 µg/mL)	0.39 (≈ 0.201 µg/mL)	> 200	–
CO[C@@]1(NC(=O)Cc2cccs2)C(=O)N2C(C(=O)O)=C(COC(N)=O)CS[C@@H]21 [CEFOXITIN]	50 (≈ 21.4 µg/mL)	–	100 (≈ 42.7 µg/mL)	25 (≈ 10.7 µg/mL)	> 200	–
O=C(Nc1ccc(Sc2nc3ccccc3s2)c(Cl)c1)Nc1ccc(Cl)cc1Cl	> 200	> 200	0.78 (≈ 0.375 µg/mL)	0.78 (≈ 0.375 µg/mL)	> 200	–
